Assay results: patent US20140045826A1, “METHODS AND COMPOSITIONS FOR TREATING NEURODEGENERATIVE DISEASES” (ARIAD PHARMACEUTICALS, INC., priority 2011, published 2014)

Tests used:
Aurora C = target: T1, Aurora C (Homo sapiens, UniProt Q9UQB9); assay: in vitro kinase assay; type: biochemical
T1 sequence (Q9UQB9 1-309): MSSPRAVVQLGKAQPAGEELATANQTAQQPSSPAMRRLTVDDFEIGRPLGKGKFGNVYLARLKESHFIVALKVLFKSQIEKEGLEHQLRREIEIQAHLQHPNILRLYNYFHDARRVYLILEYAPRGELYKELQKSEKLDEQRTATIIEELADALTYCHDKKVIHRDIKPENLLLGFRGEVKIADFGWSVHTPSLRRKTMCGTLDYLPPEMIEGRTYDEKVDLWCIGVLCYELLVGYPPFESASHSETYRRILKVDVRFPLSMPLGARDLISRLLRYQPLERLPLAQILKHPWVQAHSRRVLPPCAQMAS

ALK = ALK (Homo sapiens, UniProt Q9UM73); assay: in vitro kinase assay; type: biochemical
AXL = target: T2, AXL (Homo sapiens, UniProt P30530); assay: in vitro kinase assay; type: biochemical
T2 sequence (P30530 26-894): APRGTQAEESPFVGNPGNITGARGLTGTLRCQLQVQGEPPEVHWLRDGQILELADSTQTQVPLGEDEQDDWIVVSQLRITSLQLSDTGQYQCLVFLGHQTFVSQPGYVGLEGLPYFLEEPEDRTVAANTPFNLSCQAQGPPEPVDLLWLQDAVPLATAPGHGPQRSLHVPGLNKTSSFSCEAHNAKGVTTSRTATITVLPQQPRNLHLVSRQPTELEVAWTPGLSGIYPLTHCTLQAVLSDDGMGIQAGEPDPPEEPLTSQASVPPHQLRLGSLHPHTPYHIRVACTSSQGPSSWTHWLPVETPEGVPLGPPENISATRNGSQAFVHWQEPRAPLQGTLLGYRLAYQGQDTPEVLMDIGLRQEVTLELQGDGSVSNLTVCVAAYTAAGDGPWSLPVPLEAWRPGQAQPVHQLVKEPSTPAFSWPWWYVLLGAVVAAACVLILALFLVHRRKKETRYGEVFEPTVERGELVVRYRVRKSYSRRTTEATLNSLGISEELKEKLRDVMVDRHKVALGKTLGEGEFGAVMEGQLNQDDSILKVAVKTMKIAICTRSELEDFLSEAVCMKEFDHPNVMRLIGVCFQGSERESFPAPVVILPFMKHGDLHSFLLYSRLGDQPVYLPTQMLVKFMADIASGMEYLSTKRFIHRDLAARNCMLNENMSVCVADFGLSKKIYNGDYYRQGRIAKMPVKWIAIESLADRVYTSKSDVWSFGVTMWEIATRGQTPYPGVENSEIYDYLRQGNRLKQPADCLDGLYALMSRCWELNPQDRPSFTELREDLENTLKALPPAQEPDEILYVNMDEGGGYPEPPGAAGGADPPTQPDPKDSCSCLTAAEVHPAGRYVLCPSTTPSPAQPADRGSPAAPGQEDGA

ZAP70 = target: T3, ZAP70 (Homo sapiens, UniProt P43403); assay: in vitro kinase assay; type: biochemical
T3 sequence (P43403 1-619): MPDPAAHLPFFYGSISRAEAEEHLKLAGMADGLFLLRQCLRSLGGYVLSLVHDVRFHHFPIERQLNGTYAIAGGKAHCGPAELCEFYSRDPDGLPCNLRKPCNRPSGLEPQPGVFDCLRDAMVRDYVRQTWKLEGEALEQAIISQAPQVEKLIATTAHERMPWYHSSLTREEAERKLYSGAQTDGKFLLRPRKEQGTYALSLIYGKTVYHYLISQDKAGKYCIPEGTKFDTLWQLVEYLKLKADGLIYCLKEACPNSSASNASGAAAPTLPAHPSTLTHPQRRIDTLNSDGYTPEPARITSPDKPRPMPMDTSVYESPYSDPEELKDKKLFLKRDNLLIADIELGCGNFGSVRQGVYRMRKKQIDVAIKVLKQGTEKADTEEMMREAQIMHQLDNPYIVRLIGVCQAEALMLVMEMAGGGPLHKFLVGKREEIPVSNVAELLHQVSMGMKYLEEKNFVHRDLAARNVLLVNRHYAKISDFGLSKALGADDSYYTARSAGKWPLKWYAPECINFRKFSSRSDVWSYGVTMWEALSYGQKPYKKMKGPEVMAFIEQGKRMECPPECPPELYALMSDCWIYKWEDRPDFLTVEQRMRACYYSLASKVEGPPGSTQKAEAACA

ITK = target: T4, ITK (Homo sapiens, UniProt Q08881); assay: in vitro kinase assay; type: biochemical
T4 sequence (Q08881 1-620): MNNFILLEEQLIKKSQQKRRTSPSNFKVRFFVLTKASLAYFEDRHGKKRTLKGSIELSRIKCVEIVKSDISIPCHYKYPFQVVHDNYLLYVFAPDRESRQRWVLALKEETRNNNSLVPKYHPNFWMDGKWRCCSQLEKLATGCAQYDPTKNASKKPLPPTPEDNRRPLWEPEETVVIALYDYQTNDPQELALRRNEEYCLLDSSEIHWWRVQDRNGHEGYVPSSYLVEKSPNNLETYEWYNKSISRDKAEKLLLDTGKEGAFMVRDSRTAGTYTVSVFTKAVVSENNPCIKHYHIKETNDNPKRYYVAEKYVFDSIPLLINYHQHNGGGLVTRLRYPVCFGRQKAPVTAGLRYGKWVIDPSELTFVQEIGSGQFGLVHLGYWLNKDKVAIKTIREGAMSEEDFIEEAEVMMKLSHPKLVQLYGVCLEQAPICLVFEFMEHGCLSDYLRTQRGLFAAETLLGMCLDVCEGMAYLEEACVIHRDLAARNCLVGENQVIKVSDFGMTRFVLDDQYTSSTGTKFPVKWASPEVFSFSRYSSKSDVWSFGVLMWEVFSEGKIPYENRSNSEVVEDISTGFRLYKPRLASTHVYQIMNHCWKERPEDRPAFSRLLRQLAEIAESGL

TYK1 = TYK1 (Homo sapiens, UniProt P29376); assay: in vitro kinase assay; type: biochemical
[1] = phase 1 clinical trial, safety and tolerability
in vivo = settings: rat, plasma, po, 5 mg/kg
CTK = target: T5, CTK (Homo sapiens, UniProt P42679); assay: in vitro kinase assay; type: biochemical
T5 sequence (P42679 1-507): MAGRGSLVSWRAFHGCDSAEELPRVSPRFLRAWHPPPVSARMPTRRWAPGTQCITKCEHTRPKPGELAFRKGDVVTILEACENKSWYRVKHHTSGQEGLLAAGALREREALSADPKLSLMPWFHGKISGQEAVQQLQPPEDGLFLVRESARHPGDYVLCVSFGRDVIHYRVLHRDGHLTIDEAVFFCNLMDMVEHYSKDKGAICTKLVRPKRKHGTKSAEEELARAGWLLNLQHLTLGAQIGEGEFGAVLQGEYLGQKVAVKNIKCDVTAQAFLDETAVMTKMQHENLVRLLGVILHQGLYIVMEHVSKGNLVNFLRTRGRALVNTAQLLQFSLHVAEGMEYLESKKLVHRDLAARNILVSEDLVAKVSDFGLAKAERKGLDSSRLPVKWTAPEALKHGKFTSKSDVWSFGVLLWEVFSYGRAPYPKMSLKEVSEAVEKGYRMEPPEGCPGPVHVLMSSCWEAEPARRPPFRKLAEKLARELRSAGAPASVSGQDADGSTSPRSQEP

ROS = ROS (Homo sapiens, UniProt P08922); assay: in vitro kinase assay; type: biochemical
mTOR = mTOR (Homo sapiens, UniProt P42345); assay: in vitro kinase assay; type: biochemical
IRR = IRR (Homo sapiens, UniProt P14616); assay: in vitro kinase assay; type: biochemical
PKC8 = assay: in vitro kinase assay; type: biochemical
PGP efflux pump = PGP efflux pump (Homo sapiens, UniProt P08183); assay: substrate for the PGP efflux pump
[2] = mice and humans; cited from earlier work

IRR, sequence (P14616 27-1297): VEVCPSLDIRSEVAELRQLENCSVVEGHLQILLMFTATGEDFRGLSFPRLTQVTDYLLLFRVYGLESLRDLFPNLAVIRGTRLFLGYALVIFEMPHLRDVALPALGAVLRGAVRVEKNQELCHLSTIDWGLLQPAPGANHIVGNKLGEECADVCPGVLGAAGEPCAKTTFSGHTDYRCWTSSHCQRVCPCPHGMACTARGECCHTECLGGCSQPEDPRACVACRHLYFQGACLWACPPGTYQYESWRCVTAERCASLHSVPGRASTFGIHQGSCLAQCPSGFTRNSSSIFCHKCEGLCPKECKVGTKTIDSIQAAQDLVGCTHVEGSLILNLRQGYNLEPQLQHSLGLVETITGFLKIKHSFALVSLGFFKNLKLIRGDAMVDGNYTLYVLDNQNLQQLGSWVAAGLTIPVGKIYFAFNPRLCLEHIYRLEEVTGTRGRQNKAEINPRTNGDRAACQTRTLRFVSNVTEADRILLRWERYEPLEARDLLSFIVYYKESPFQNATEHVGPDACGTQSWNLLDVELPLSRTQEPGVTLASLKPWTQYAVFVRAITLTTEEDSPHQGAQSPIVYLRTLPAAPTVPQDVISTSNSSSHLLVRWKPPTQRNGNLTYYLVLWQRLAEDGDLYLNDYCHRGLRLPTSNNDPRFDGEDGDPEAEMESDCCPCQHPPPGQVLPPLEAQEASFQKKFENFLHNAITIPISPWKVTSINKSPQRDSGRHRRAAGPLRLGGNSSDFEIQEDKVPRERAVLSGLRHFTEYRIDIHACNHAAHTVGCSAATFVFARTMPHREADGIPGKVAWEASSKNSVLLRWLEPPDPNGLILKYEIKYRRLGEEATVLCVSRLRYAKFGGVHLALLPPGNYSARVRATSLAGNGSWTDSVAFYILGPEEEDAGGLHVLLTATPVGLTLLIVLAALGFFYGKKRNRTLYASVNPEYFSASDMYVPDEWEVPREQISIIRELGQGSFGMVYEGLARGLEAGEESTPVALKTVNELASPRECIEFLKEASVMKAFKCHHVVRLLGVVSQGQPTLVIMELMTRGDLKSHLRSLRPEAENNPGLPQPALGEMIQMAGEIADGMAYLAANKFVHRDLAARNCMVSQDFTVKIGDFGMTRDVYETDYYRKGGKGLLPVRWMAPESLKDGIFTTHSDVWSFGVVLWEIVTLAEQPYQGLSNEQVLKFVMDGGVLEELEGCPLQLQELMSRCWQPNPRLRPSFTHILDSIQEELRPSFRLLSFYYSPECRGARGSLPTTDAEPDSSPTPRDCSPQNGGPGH
TYK1, sequence (P29376 17-864, species assumed): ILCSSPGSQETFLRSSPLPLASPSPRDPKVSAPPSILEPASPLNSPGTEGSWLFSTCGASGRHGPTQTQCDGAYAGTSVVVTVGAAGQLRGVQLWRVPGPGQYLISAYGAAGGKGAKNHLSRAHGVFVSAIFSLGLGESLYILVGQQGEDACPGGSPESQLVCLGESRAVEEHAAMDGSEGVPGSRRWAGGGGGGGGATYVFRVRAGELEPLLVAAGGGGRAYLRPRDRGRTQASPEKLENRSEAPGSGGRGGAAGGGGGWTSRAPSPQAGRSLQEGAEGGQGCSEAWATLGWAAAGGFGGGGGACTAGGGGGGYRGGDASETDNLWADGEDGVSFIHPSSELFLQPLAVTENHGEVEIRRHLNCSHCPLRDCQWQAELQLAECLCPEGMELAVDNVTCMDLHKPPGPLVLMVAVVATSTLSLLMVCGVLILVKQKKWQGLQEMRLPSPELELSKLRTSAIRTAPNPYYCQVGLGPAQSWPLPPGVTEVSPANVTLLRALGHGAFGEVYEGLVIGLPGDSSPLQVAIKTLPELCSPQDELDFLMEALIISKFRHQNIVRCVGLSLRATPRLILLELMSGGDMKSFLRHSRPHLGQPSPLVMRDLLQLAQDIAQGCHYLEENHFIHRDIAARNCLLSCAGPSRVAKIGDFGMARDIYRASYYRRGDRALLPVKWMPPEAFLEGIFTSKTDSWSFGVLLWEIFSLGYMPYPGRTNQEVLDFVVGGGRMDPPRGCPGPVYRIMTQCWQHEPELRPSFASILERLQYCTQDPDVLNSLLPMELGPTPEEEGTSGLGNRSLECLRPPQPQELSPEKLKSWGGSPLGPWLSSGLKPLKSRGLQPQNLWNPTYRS
ALK, sequence (Q9UM73 19-1620): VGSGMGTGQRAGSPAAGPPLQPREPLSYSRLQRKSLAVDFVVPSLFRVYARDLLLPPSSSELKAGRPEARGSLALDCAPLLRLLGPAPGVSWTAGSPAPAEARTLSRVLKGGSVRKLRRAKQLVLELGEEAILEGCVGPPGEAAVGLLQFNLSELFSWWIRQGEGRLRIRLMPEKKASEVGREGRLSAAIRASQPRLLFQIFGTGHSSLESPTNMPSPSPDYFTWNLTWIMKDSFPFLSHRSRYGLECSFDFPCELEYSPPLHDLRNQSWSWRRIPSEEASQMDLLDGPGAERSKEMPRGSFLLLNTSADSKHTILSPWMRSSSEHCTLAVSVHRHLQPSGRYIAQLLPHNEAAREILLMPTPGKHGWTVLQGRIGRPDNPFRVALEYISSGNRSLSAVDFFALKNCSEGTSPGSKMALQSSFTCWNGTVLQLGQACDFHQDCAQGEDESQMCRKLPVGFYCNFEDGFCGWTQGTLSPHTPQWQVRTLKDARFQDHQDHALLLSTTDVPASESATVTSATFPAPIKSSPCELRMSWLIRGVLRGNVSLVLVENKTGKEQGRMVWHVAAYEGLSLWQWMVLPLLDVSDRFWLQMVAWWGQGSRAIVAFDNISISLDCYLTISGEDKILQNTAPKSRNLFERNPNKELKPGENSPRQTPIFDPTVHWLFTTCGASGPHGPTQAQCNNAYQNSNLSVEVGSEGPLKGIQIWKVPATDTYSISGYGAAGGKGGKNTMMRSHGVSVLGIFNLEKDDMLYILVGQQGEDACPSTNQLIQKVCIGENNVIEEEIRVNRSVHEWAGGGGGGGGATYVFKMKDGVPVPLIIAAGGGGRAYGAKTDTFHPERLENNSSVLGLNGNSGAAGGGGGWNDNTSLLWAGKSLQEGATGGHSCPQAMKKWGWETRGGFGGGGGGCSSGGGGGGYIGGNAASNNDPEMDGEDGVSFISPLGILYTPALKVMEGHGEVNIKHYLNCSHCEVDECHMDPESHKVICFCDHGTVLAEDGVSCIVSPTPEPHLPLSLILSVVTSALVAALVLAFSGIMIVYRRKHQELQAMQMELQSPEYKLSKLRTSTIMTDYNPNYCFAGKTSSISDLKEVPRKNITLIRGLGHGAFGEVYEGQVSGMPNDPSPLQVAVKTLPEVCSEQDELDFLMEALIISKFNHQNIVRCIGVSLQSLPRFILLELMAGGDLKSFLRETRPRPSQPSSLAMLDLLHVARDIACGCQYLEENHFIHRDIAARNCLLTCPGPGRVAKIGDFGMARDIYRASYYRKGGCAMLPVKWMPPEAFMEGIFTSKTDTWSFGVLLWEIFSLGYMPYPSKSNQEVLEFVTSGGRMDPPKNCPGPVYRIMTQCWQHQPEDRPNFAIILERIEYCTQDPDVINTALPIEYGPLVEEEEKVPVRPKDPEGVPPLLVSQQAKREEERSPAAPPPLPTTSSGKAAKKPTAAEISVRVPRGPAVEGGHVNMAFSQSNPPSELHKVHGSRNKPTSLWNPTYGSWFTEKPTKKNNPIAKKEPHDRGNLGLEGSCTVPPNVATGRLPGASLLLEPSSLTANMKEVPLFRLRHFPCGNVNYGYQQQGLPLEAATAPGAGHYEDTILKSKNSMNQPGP
PGP efflux pump, sequence (P08183 whole entry): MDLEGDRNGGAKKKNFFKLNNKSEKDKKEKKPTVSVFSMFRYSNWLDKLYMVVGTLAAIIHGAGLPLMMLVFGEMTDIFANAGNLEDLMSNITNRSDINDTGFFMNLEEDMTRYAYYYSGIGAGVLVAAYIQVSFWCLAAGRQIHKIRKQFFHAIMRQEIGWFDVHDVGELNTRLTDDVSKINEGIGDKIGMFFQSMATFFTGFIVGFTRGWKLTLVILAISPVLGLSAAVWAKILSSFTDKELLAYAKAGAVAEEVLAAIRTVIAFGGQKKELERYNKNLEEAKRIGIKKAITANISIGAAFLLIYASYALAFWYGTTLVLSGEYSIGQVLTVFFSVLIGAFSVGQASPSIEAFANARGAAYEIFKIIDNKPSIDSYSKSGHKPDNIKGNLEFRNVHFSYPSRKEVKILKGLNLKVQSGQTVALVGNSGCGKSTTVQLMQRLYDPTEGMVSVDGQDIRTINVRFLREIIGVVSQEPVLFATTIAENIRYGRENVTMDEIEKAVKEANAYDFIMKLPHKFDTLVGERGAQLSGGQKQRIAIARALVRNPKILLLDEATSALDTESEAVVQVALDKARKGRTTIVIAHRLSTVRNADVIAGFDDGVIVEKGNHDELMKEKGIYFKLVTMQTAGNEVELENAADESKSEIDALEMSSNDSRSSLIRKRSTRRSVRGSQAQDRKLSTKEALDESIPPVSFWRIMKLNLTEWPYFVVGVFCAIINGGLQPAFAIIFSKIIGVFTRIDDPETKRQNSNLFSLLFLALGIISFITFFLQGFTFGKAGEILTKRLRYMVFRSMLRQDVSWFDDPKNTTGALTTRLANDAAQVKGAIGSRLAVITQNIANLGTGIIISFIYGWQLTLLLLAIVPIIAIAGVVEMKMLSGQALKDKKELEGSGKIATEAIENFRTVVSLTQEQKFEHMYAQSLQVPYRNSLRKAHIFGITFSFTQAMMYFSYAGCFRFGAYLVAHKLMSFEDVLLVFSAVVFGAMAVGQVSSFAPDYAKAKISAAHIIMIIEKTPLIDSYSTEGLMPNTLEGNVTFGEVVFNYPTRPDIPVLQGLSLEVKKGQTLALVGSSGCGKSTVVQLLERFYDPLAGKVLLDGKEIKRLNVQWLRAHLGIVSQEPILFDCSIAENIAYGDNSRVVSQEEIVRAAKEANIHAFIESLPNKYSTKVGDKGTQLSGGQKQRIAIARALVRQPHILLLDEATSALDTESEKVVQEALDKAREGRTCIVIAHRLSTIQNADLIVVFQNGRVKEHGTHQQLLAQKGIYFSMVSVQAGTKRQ

SMILES: Cc1ccc(C(=O)Nc2ccc(CN3CCN(C)CC3)c(C(F)(F)F)c2)cc1C#Cc1cnc2cccnn12 [ponatinib, 3-(Imidazo[1,2-b]pyridazin-3-ylethynyl)-4-methyl-N-(4-((4-methylpiperazin-1-yl)methyl)-3-(trifluoromethyl)phenyl)benzamide]
- IC50 (Aurora C): > 1000 nM
- IC50 (ALK): > 1000 nM
- IC50 (AXL): > 1000 nM
- IC50 (ZAP70): > 1000 nM
- IC50 (ITK): > 1000 nM
- IC50 (TYK1): > 1000 nM
- dose limiting toxicities (DLTs) ([1]; 45 mg cohort): a reversible rash was seen with one patient
- dose limiting toxicities (DLTs) ([1]; 60 mg cohort): four patients developed reversible pancreatic related DLT (pancreatitis)
- dose limiting toxicities (DLTs) ([1]; 2 to 30 mg cohorts): no dose limiting toxicities (DLTs) were observed
- maximum tolerated dose (MTD) ([1]; patients with refractory hematological cancers, oral, dose escalation 2-60 mg): 45 mg
- drug-related adverse events of any grade: anemia ([1]; phase 1 patients): 12%
- drug-related adverse events of any grade: lipase increase ([1]; phase 1 patients): 12%
- drug-related adverse events of any grade: nausea ([1]; phase 1 patients): 12%
- drug-related adverse events of any grade: rash ([1]; phase 1 patients): 12%
- drug-related adverse events of any grade: thrombocytopenia ([1]; phase 1 patients): 25%
- tolerability ([1]; phase 1 study conclusion): well tolerated
- Cmax (in vivo): 175 ng/mL
- IC50 (CTK): > 1000 nM
- IC50 (ROS): > 1000 nM
- IC50 (mTOR): > 1000 nM
- IC50 (IRR): > 1000 nM
- IC50 (PKC8): > 1000 nM
- substrate for the PGP efflux pump (PGP efflux pump): poor substrate

SMILES: Cc1ccc(NC(=O)c2ccc(CN3CCN(C)CC3)cc2)cc1Nc1nccc(-c2cccnc2)n1 [STI-571]
- penetration of the blood-brain barrier [2]: poor penetration of the blood-brain barrier
